The target of assay [1] is Calcium/calmodulin-dependent protein kinase kinase 1 (Homo sapiens) (UniProt Q8N5S9). The assay is described as follows: Inhibition of recombinant full length human CaMKK1 assessed as residual activity at 1 uM […] incubated for 40 mins in presence of [gamma-33ATP] by scintillation counting based radiometry assay relative to control.
In assay [2] the target is Casein kinase 2 (Homo sapiens) (UniProt P67870+P68400+P19784+Q8NEV1). The assay can be described thus: Inhibition of recombinant human CK2 assessed as residual activity at 1 uM in presence of [gamma-33ATP] by scintillation counting based radiometry assay relative to control. Format: protein assay.
The target of assay [3] is Dual specificity protein kinase CLK2 (Homo sapiens) (UniProt P49760). The assay is described as follows: Inhibition of recombinant human CLK2 (138 to end residues) assessed as residual activity at 1 uM using YRRAAVPPSPSLSRHSSPHQS(p)EDEEE as substrate incubated 40 mins in presence of [gamma-33ATP] by scintillation counting based radiometry assay relative to control.
Assay [4] has as its target Epidermal growth factor receptor (Homo sapiens) (UniProt P00533). The assay can be described thus: Inhibition of recombinant human EGFR (696 to end residues) assessed as residual activity at 1 uM using poly(Glu, Tyr) 4:1 as substrate at 40 mins in presence of [gamma-33ATP] by scintillation counting based radiometry assay relative to control.
The target of assay [5] is Tyrosine-protein kinase Fgr (Homo sapiens) (UniProt P09769). The assay is described as follows: Inhibition of recombinant human FGR (2 to end residues) assessed as residual activity at 1 uM using poly(Glu, Tyr) 4:1 as substrate at 40 mins in presence of [gamma-33ATP] by scintillation counting based radiometry assay relative to control.
Tyrosine-protein kinase Fgr (Homo sapiens), sequence (P09769 2-529 limits assumed): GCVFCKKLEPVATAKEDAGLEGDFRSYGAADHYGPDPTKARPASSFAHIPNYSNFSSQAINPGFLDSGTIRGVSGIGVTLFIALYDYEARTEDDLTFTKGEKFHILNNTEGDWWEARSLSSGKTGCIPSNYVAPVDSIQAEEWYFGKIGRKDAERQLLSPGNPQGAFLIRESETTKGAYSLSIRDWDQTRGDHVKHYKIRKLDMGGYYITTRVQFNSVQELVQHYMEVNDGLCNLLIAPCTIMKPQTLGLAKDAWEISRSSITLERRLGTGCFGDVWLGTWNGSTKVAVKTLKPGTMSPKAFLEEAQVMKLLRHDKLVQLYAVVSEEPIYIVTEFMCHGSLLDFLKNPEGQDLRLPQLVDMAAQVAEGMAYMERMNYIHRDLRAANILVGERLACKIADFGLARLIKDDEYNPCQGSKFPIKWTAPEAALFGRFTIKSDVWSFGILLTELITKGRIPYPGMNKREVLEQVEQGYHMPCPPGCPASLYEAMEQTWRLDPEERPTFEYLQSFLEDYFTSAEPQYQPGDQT
In assay [6] the target is Eukaryotic translation initiation factor 2-alpha kinase 1 (Homo sapiens) (UniProt Q9BQI3). The assay is described as follows: Inhibition of human HRI (140 to end residues) assessed as residual activity at 1 uM using RSRSRSRSRSRSRSR as substrate after 120 mins by [gamma-33ATP] radiometric assay relative to control.
Assay [7] addresses Tyrosine-protein kinase ITK/TSK (Homo sapiens) (UniProt Q08881). The assay is described as follows: Inhibition of human Itk (352 to 617 residues) assessed as residual activity at 1 uM using myelin basic protein as substrate after 40 mins by [gamma-33ATP] radiometric assay relative to control.
Assay [8] is filed under the species Homo sapiens. The assay is described as follows: Inhibition of recombinant human MARK1 V16E/T20S mutant (2 to end residues) assessed as residual activity at 1 uM using KKKVSRSGLYRSPSMPENLNRPR as substrate incubated for 40 mins in presence of [gamma-33ATP by scintillation counting based radiometry assay relative to control.
For assay [9], the target named is Mitogen-activated protein kinase kinase kinase 2 (Homo sapiens) (UniProt Q9Y2U5). The assay is described as follows: Inhibition of recombinant full length human MEKK2 assessed as residual activity at 1 uM using myelin basic protein as substrate incubated for 40 mins in presence of [gamma-33ATP by scintillation counting based radiometry assay relative to control.

Assay [10] deals with Hepatocyte growth factor receptor (Homo sapiens), P08581 [Y1230D]. The assay is described as follows: Inhibition of recombinant human MET A1209G/V1290L/Y1248D mutant (974 to end residues) assessed as residual activity at 1 uM using KKKGQEEEYVFIE as substrate incubated for 40 mins in presence of [gamma-33ATP by scintillation counting based radiometry assay relative to control.

Assay [11] deals with Misshapen-like kinase 1 (Homo sapiens) (UniProt Q8N4C8). The assay can be described thus: Inhibition of recombinant human MINK (1 to 310 residues) assessed as residual activity at 1 uM using myelin basic protein as substrate measured after 40 mins in presence of [gamma33P]ATP by scintillation counting method.
Assay [12] addresses SRSF protein kinase 3 (Homo sapiens) (UniProt Q9UPE1). The assay is described as follows: Inhibition of recombinant full-length human MSSK1 assessed as residual activity at 1 uM using ERMRPRKRQGSVRRRV as substrate measured after 40 mins in presence of [gamma33P]ATP by scintillation counting method relative to control.
Assay [13] deals with Serine/threonine-protein kinase 26 (Homo sapiens) (UniProt Q9P289). The assay is described as follows: Inhibition of recombinant human MST4 (4 to 304 residues) assessed as residual activity at 1 uM using RLGRDKYKTLRQIRQ as substrate measured after 40 mins in presence of [gamma33P]ATP by scintillation counting method relative to control.
Assay [14] addresses Serine/threonine-protein kinase PAK 6 (Homo sapiens) (UniProt Q9NQU5). The assay can be described thus: Inhibition of recombinant human PAK6 (382 to end residues) assessed as residual activity at 1 uM using RRRLSFAEPG as substrate measured after 40 mins in presence of [gamma33P]ATP by scintillation counting method relative to control.
The target in assay [15] is PAS domain-containing serine/threonine-protein kinase (Homo sapiens) (UniProt Q96RG2). The assay can be described thus: Inhibition of recombinant human PASK (995 to end residues) assessed as residual activity at 1 uM using KKLNRTLSFAEPG as substrate measured after 40 mins in presence of [gamma33P]ATP by scintillation counting method relative to control.
PAS domain-containing serine/threonine-protein kinase (Homo sapiens), sequence (Q96RG2 whole entry, the tested form may be a part): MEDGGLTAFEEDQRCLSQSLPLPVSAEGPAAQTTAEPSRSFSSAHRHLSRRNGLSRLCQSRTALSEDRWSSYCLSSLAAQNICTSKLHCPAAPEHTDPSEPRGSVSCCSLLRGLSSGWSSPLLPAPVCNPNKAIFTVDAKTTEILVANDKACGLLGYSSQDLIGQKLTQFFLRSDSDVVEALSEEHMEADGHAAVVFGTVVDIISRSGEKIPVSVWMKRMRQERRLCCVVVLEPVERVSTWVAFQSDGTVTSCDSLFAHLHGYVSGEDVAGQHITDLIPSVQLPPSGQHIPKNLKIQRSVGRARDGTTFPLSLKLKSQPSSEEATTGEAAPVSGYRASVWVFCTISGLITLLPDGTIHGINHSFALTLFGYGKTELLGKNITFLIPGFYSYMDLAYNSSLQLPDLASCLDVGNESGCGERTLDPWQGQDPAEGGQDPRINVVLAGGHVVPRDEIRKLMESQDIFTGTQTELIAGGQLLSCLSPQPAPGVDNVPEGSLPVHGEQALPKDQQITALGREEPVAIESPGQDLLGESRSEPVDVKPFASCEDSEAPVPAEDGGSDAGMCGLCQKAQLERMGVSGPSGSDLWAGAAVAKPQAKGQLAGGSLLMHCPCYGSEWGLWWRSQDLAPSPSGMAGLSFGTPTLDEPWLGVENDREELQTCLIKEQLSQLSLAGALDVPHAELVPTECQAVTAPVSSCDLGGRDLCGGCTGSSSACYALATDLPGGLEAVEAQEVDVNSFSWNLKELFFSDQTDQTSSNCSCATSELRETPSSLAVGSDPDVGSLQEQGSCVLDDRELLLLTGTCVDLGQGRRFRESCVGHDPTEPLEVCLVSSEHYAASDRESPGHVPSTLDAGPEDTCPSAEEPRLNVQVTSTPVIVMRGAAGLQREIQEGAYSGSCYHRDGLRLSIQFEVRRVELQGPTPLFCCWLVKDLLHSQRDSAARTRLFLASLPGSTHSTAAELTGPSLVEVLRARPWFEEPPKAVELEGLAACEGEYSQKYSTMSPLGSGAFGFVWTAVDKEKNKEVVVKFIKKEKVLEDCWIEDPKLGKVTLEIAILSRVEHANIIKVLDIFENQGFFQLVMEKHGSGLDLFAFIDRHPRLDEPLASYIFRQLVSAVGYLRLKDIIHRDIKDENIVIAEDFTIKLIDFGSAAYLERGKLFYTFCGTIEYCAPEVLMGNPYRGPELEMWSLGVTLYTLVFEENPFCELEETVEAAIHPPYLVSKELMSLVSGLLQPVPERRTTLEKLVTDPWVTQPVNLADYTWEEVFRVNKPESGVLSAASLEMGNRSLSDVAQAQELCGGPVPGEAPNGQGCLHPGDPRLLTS
The target of assay [16] is Platelet-derived growth factor receptor alpha (Homo sapiens) (UniProt P16234). The assay can be described thus: Inhibition of human PDGFRalpha (550 to end residues) assessed as residual activity at 1 uM poly(Glu, Tyr) 4:1 as substrate measured after 40 mins in presence of [gamma33P]ATP by scintillation counting method relative to control.
Assay [17] has as its target Serine/threonine-protein kinase pim-1 (Homo sapiens) (UniProt P11309). The assay is described as follows: Inhibition of recombinant full length human Pim1 assessed as residual activity at 1 uM using KKRNRTLTV as substrate measured after 40 mins in presence of [gamma33P]ATP by scintillation counting method relative to control.
The target of assay [18] is Interferon-induced, double-stranded RNA-activated protein kinase (Homo sapiens) (UniProt P19525). The assay can be described thus: Inhibition of recombinant human PKR (252 to end residues) assessed as residual activity at 1 uM using RSRSRSRSRSRSRSR as substrate measured after 40 mins in presence of [gamma33P]ATP by scintillation counting method relative to control.
Assay [19] concerns the target Serine/threonine-protein kinase PLK1 (Homo sapiens) (UniProt P53350). The assay is described as follows: Inhibition of recombinant full-length human Plk1 assessed as residual activity at 1 uM using casein as substrate measured after 40 mins in presence of [gamma33P]ATP by scintillation counting method relative to control.
Assay [20] has as its target Serine/threonine-protein kinase TAO1 (Homo sapiens) (UniProt Q7L7X3). The assay can be described thus: Inhibition of human TAO1 (1 to 327 residues) assessed as residual activity at 1 uM using myelin basic protein as substrate measured after 40 mins in presence of [gamma33P]ATP by scintillation counting method relative to control.
For assay [21], the species on record is Homo sapiens. The assay can be described thus: Inhibition of recombinant full-length human ATRIP/ATR M211T mutant at 1 uM assessed as residual activity at 1 uM using GST-cMyc-p53 as substrate measured after 40 mins by fluorescence assay.
For assay [22], the species on record is Homo sapiens. The assay can be described thus: Inhibition of recombinant human full length PI3K p110alpha/p65alpha assessed as residual activity at 1 uM assessed as residual activity at 1 uM using phosphatidylinositol-4, 5-bisphosphate as substrate incubated for 40 mins in presence of [gamma33P]ATP by scintillation counting based radiometry assay relative to control.

These results are taken from ChEMBL document CHEMBL4334438, “Discovery of novel glycogen synthase kinase-3α inhibitors: Structure-based virtual screening, preliminary SAR and biological evaluation for treatment of acute myeloid leukemia” (Eur J Med Chem, 2019).

SMILES strings stand for the structures.

SRSF protein kinase 3 (Homo sapiens), sequence (Q9UPE1 whole entry, the tested form may be a part): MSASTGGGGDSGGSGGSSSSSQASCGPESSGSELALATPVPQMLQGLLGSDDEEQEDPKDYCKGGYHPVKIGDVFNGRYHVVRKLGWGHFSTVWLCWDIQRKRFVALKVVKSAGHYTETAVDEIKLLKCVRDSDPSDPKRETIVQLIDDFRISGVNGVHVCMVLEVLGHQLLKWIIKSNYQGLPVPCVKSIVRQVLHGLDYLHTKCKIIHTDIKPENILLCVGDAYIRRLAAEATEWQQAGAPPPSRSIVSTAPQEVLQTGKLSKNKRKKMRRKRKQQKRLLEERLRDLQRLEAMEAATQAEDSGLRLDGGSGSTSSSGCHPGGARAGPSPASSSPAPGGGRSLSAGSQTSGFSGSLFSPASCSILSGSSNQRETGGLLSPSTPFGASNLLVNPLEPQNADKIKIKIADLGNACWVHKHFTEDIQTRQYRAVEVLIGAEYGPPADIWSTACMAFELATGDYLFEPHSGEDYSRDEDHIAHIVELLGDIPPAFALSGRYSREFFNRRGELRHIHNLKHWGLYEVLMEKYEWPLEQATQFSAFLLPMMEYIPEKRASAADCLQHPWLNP
Serine/threonine-protein kinase TAO1 (Homo sapiens), sequence (Q7L7X3 whole entry, the tested form may be a part): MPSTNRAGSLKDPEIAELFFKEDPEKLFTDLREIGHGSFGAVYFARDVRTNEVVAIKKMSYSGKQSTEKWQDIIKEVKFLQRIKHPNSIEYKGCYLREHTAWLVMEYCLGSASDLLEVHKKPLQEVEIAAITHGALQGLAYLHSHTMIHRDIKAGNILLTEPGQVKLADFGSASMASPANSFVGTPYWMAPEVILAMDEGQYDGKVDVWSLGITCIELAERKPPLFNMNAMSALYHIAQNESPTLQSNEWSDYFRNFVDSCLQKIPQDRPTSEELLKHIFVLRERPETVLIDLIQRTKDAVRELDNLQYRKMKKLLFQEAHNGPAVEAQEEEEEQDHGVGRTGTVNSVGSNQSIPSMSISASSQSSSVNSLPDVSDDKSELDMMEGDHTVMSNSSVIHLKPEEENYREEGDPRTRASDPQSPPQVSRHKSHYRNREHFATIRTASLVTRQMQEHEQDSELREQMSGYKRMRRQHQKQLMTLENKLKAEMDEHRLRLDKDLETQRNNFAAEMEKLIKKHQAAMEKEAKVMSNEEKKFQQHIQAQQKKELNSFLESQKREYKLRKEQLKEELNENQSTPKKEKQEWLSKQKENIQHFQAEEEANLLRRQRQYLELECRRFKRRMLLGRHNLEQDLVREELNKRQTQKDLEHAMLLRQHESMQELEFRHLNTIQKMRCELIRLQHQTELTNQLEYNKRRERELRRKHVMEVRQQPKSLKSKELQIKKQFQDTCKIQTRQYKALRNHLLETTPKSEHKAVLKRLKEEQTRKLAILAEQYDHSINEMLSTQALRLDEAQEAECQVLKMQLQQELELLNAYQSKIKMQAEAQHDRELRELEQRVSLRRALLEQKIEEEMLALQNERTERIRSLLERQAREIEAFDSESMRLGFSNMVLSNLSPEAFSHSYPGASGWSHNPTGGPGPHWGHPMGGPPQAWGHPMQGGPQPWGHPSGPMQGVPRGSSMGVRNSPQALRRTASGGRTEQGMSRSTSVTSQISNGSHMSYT
Serine/threonine-protein kinase pim-1 (Homo sapiens), sequence (P11309 whole entry, looked up): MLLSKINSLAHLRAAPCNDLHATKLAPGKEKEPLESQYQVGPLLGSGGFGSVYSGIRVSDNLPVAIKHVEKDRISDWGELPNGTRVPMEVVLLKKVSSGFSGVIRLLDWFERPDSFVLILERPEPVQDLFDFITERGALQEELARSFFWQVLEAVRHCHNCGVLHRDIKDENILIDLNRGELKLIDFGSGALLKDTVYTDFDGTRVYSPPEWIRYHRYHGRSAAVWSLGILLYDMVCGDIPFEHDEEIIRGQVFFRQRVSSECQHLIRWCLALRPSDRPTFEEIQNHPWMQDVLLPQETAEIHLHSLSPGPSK
Tyrosine-protein kinase ITK/TSK (Homo sapiens), sequence (Q08881 whole entry, the tested form may be a part): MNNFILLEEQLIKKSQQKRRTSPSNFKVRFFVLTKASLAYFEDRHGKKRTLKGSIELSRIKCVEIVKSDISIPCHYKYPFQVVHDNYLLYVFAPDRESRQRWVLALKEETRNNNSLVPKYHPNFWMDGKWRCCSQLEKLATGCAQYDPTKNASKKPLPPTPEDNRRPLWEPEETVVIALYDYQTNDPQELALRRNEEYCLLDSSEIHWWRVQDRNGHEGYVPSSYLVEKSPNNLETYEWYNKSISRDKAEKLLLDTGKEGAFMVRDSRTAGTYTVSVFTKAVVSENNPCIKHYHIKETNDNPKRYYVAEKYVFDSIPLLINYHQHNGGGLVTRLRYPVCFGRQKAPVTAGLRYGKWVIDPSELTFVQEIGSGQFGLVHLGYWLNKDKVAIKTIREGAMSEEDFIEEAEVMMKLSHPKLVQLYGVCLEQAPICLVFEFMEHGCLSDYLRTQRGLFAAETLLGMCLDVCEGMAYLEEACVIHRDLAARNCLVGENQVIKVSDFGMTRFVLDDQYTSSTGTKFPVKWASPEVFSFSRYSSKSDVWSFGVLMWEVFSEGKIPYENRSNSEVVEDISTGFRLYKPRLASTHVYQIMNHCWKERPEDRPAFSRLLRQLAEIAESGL
Calcium/calmodulin-dependent protein kinase kinase 1 (Homo sapiens), sequence (Q8N5S9 whole entry, looked up): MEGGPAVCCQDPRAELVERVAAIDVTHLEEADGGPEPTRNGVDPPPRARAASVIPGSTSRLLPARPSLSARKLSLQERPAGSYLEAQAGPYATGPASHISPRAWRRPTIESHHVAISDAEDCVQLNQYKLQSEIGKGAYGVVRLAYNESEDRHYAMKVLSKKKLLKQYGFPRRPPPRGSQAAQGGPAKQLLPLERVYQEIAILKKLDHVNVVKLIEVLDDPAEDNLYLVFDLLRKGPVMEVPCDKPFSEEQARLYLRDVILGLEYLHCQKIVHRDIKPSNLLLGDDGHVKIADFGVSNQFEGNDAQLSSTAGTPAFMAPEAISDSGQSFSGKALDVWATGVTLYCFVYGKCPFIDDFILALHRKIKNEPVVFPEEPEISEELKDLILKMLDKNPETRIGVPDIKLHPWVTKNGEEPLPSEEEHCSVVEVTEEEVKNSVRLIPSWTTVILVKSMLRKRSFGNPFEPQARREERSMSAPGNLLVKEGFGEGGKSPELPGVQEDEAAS

For `N=C1NC(=O)/C(=C\c2ccc(-c3cccc([N+](=O)[O-])c3)o2)S1`, the Activity in assay [1] was found to be 92%; in [2], 43%; in [3] it was 39%; in [4], 91%; in assay [5] it was 81%; in assay [6], 96%. In addition, the Activity in [7] came to 98%; in the assay filed under Homo sapiens [8] it was 89%; in [9] it was 93%; in assay [10], 92%; in [11], 85%; in assay [12], 96%. Further, the Activity in [13] is 94%; in assay [14] it was 91%; in assay [15], 92%; in assay [16], 104%; in [17], 9%; in assay [18] it was 98%. Further, the Activity was found to be 99% in assay [19], 52% in assay [20], 111% in the assay filed under Homo sapiens [21] and 100% in the assay listed under Homo sapiens [22].

`C=CCOC(=O)c1cc(-c2ccc(/C=C3/NC(=S)NC3=O)o2)ccc1Cl`: the Activity in assay [1] is 96%; in [2], 58%; in assay [3], 38%; in assay [4] it was 106%; in assay [5], 90%; in [6], 101%. Besides, the Activity in [7] came to 107%; in the assay filed under Homo sapiens [8], 91%; in [9], 98%; in [10], 105%; in assay [11], 92%; in assay [12], 99%. The Activity in assay [13] amounted to 93%; in assay [14] it was 107%; in assay [15], 97%; in [16], 92%; in assay [17], 21%; in assay [18] it was 98%. Further, the Activity in assay [19] came out at 103%; in assay [20] it was 82%; in the assay filed under Homo sapiens [21], 102%; in the assay filed under Homo sapiens [22], 85%.
